The values that follow come from patent EP3789378A1, “PIPERIDINES OR PIPERIDONES SUBSTITUTED WITH UREA AND HETEROARYL” (Grünenthal GmbH, priority 2019, dated 2021).

A word on the EC50: it is the concentration at which the effect is half-maximal.

In one assay the target is T1, h FPR2 (Homo sapiens, UniProt P25090).
T1 construct: expressed in transfected cells
T1 sequence (P25090 1-351): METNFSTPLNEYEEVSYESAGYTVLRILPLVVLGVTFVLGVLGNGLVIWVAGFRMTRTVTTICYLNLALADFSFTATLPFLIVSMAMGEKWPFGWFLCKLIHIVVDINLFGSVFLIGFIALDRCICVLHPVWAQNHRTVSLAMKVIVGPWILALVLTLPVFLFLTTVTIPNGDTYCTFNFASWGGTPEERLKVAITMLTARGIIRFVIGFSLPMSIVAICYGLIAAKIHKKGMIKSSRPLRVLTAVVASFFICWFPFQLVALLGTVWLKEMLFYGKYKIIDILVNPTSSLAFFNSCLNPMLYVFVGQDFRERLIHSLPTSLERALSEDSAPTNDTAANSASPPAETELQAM
The experiment in a line: Agonistic activity in hFPR2-Aq-CHO cells (FLIPR Calcium 5 fluorescence assay). It is filed as cell-based. Particulars: 11 point half log dilution, final assay concentration from 10µM. An outline of the steps: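 EC50 reflects the compound-evoked rise in Calcium 5 fluorescence over basal, recorded for 5 min on FLIPR and compared with no-compound wells. Dye-loaded hFPR2-Aq-CHO cells received half-log dilutions from 10 µM to 100 pM final in pH 7.4 HBSS buffer.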
For `COc1cnc([C@@H]2CN(CC(C)(C)O)CC[C@H]2NC(=O)Nc2ccc(Cl)cc2)c(F)c1` (relative stereo) [Ex-208, trans-1-(4-chloro-phenyl)-3-[3-fluoro-1'-(2-hydroxy-2-methyl-propyl)-5-methoxy-1',2',3',4',5',6'-hexahydro-[2,3']bipyridinyl-4'-yl]-urea], the EC50 amounted to 0.7 nM.
As for `COc1ccc([C@@H]2CN(CC3COC3)CC[C@H]2NC(=O)Nc2ccc(Cl)cc2)nc1` (relative stereo) [Ex-109, trans-1-(4-chloro-phenyl)-3-(5-methoxy-1'-oxetan-3-ylmethyl-1',2',3',4',5',6'-hexahydro-[2,3']bipyridinyl-4'-yl)-urea], the EC50 was determined as 1.2 nM.
Regarding `COc1ccc([C@@H]2CN(CC3CCC(O)CC3)CC[C@H]2NC(=O)Nc2ccc(Cl)cc2)nc1` (relative stereo) [Ex-114, trans-1-(4-chloro-phenyl)-3-[1'-(4-hydroxy-cyclohexylmethyl)-5-methoxy-1',2',3',4',5',6'-hexahydro-[2,3']bipyridinyl-4'-yl]-urea], the EC50 was 0.6 nM.
Same read-out and setting: with `COc1ccc([C@@H]2CN(C3COC3)CC[C@H]2NC(=O)Nc2ccc(Cl)cc2)nc1` (relative stereo) [Ex-108, trans-1-(4-chloro-phenyl)-3-(5-methoxy-1'-oxetan-3-yl-1',2',3',4',5',6'-hexahydro-[2,3']bipyridinyl-4'-yl)-urea] the figure was 7 nM; with `Cc1ccc(N2CC[C@@H](NC(=O)Nc3cc(C)ns3)[C@H](c3ccc(Cl)cn3)C2)nn1` (relative stereo) [Ex-33, trans-1-[5-chloro-1'-(6-methyl-pyridazin-3-yl)-1',2',3',4',5',6'-hexahydro-[2,3']bipyridinyl-4'-yl]-3-(3-methyl-isothiazol-5-yl)-urea], 11 nM; with `COc1ccc([C@@H]2CN(CCCO)CC[C@H]2NC(=O)Nc2ccc(Cl)cc2)nc1` (relative stereo) [Ex-103, trans-1-(4-chloro-phenyl)-3-[1'-(3-hydroxy-propyl)-5-methoxy-1',2',3',4',5',6'-hexahydro-[2,3']bipyridinyl-4'-yl]-urea], 2 nM.

Staying with this assay, now noted: agonistic response at 0.1µM.
With `COc1ccc([C@@H]2CN(C3CCS(=O)(=O)CC3)CC[C@H]2NC(=O)Nc2cc(C)ns2)nc1` (relative stereo) [Ex-149, trans-1-[1-(1,1-Dioxo-thian-4-yl)-3-(5-methoxy-pyridin-2-yl)-piperidin-4-yl]-3-(3-methyl-isothiazol-5-yl)-urea], the activation at 0.1 µM is 25%.
On to `Cc1cc(NC(=O)N[C@@H]2CCN(Cc3ncccn3)C[C@H]2c2ccc(Cl)s2)sn1` (relative stereo) [Ex-63, trans-1-[3-(5-chlorothiophen-2-yl)-1-(pyrimidin-2-ylmethyl)piperidin-4-yl]-3-(3-methyl-1,2-thiazol-5-yl)urea], for which the activation at 0.1 µM was 44%.
Take `COc1ccc([C@@H]2CNCC[C@H]2NC(=O)Nc2ccc(Cl)cc2)nc1` (relative stereo) [Ex-169, trans-1-(4-Chlorophenyl)-3-[3-(5-methoxy-pyridin-2-yl)-piperidin-4-yl]-urea]: the activation at 0.1 µM amounted to 23%.
